Laboratory results from article PMC2710614 (Chemistry & biology, 2009).

Target: TrpRS (Escherichia coli, UniProt P00954)
Test: ATP-PPi exchange of gamma-18O4-ATP, MALDI-TOFMS
Format: biochemical
Settings: 1 mM amino acid, 1 mM gamma-18O4-ATP, 5 mM MgCl2, 5 mM PPi, 20 mM Tris pH 7.5, 30 min at 25 °C

%γ-^18O4-ATP exchange: 9.7 ± 1.6%
SMILES: N[C@@H](Cc1c[nH]c2ccccc12)C(=O)O [Trp]
